Measurements: PubChem BioAssay (NCI)
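Results reflect a 48-hour exposure of cells in 96-well plates to compound at five concentrations. Here, GI50 denotes the concentration required for 50% inhibition of growth. TGI marks complete inhibition of growth.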

What was measured:
Assay in all cases: growth of human tumour cells (NCI), 48 h
[1] = tested on: 786-0 renal
[2] = tested on: A498 renal
[3] = tested on: A549 NSCLC
[4] = tested on: ACHN renal
[5] = tested on: BT-549 breast
[6] = tested on: CAKI-1 renal
[7] = tested on: CCRF-CEM leukemia
[8] = tested on: COLO 205 colon
[9] = tested on: DU-145 prostate
[10] = tested on: HCC-2998 colon
[11] = tested on: HCT-116 colon
[12] = tested on: HCT-15 colon
[13] = tested on: HL-60(TB) leukemia
[14] = tested on: HOP-62 NSCLC
[15] = tested on: HOP-92 NSCLC
[16] = tested on: HS 578T breast
[17] = tested on: HT29 colon
[18] = tested on: IGROV1 ovarian
[19] = tested on: K-562 leukemia
[20] = tested on: KM12 colon
[21] = tested on: M14 melanoma
[22] = tested on: MALME-3M melanoma
[23] = tested on: MCF7 breast
[24] = tested on: MDA-MB-231 breast
[25] = tested on: MDA-MB-435
[26] = tested on: MOLT-4 leukemia
[27] = tested on: NCI-H226 lung

COC(=O)[C@H](Cc1cnc[nH]1)NC(=O)[C@@H](NC(=O)Nc1cc(C(F)(F)F)cc(C(F)(F)F)c1)C(C)C
GI50 [1]: 18.9 µM
TGI [1]: 38.6 µM
GI50 [2]: 13 µM
TGI [2]: 27.3 µM
GI50 [3]: 16.7 µM
TGI [3]: 32.7 µM
GI50 [4]: 17.2 µM
TGI [4]: 33.4 µM
GI50 [5]: 16.9 µM
TGI [5]: 33.3 µM
GI50 [6]: 15.9 µM
TGI [6]: 32.7 µM
GI50 [7]: 14.7 µM
TGI [7]: 35.6 µM
GI50 [8]: 15.2 µM
TGI [8]: 29.4 µM
GI50 [9]: 17.8 µM
TGI [9]: 32.7 µM
GI50 [10]: 15.9 µM
TGI [10]: 30.7 µM
GI50 [11]: 18.9 µM
TGI [11]: 40.7 µM
GI50 [12]: 18.2 µM
TGI [12]: 36 µM
GI50 [13]: 20.2 µM
TGI [13]: 39.3 µM
GI50 [14]: 19 µM
TGI [14]: 33.7 µM
GI50 [15]: 5.33 µM
GI50 [16]: 16.8 µM
TGI [16]: 47.6 µM
GI50 [17]: 18.1 µM
TGI [17]: 33.8 µM
GI50 [18]: 18.1 µM
TGI [18]: 36.1 µM
GI50 [19]: 19.2 µM
TGI [19]: 40.5 µM
GI50 [20]: 18.4 µM
TGI [20]: 35.3 µM
GI50 [21]: 16.8 µM
TGI [21]: 34 µM
GI50 [22]: 16.9 µM
TGI [22]: 32.2 µM
GI50 [23]: 14.4 µM
TGI [23]: 29.6 µM
GI50 [24]: 12.4 µM
TGI [24]: 25.3 µM
GI50 [25]: 17.3 µM
TGI [25]: 34.3 µM
GI50 [26]: 12.5 µM
TGI [26]: 32.2 µM
GI50 [27]: 16.8 µM
TGI [27]: 36 µM
